In PubChem BioAssay AID2060602 (Molecular Pharmacology Branch, DTP, NCI, 2025):

Tested on: 648629-189-R-J1-PDC complex spheroids viability
Assay: Anticancer human tumor 648629-189-R-J1-PDC patient-derived bladder carcinoma cell line growth inhibition [CLK]
Conditions: for IC50: curve of first compound; for viability, T/C: stronger effect = lower value
In short: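 Patient-derived tumor cells grown as complex spheroids with HUVEC endothelial cells and mesenchymal stem cells, treated with drug combinations. Concentrations descend in half-log steps from near clinical Cmax, or from 10 microM if Cmax unknown.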

[1] = second compound 0.0316 µM, first compound 0.0316 µM
[2] = second compound 0.0316 µM, first compound 0.1 µM
[3] = second compound 0.0316 µM, first compound 0.316 µM
[4] = second compound 0.0316 µM, first compound 1 µM
[5] = second compound 0.0316 µM, first compound 3.16 µM
[6] = second compound 0.0316 µM, first compound 10 µM
[7] = second compound 0.1 µM, first compound 0.0316 µM
[8] = second compound 0.1 µM, first compound 0.1 µM
[9] = second compound 0.1 µM, first compound 0.316 µM
[10] = second compound 0.1 µM, first compound 1 µM
[11] = second compound 0.1 µM, first compound 3.16 µM
[12] = second compound 0.1 µM, first compound 10 µM
[13] = second compound 0.316 µM, first compound 0.0316 µM
[14] = second compound 0.316 µM, first compound 0.1 µM
[15] = second compound 0.316 µM, first compound 0.316 µM
[16] = second compound 0.316 µM, first compound 1 µM
[17] = second compound 0.316 µM, first compound 3.16 µM
[18] = second compound 0.316 µM, first compound 10 µM
[19] = second compound 1 µM, first compound 0.0316 µM
[20] = second compound 1 µM, first compound 0.1 µM
[21] = second compound 1 µM, first compound 0.316 µM
[22] = second compound 1 µM, first compound 1 µM
[23] = second compound 1 µM, first compound 3.16 µM
[24] = second compound 1 µM, first compound 10 µM
[25] = second compound 3.16 µM, first compound 0.0316 µM
[26] = second compound 3.16 µM, first compound 0.1 µM
[27] = second compound 3.16 µM, first compound 0.316 µM
[28] = second compound 3.16 µM, first compound 1 µM
[29] = second compound 3.16 µM, first compound 3.16 µM
[30] = second compound 3.16 µM, first compound 10 µM
[31] = second compound 10 µM, first compound 0.0316 µM
[32] = second compound 10 µM, first compound 0.1 µM
[33] = second compound 10 µM, first compound 0.316 µM
[34] = second compound 10 µM, first compound 1 µM
[35] = second compound 10 µM, first compound 3.16 µM
[36] = second compound 10 µM, first compound 10 µM
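For viability, T/C in this document: drug exposure lasted seven days before viability readout; 100% = DMSO vehicle control wells.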

In the case of `CC(C)CC(NC(=O)C(Cc1ccccc1)NC(=O)c1cnccn1)B(O)O` (stereo unspecified) + CN1CCN(c2cc(C(=O)Nc3cc4cc(-c5cnn(C)c5)ccc4cn3)ccn2)CC1, the IC50 (second compound 0.0316 µM) is reported as 4.64 nM, the IC50 (second compound 0.1 µM) is reported as 4.8 nM and the IC50 (second compound 0.316 µM) is reported as < 0.949 nM. The IC50 (second compound 1 µM) was < 0.949 nM, the IC50 (second compound 3.16 µM) was < 0.949 nM and the IC50 (second compound 10 µM) was < 0.949 nM. It also gave a viability, T/C (second compound 0.0316 µM, first compound 0.000949 µM) of 116%, a viability, T/C (second compound 0.0316 µM, first compound 0.003 µM) of 79.8% and a viability, T/C (second compound 0.0316 µM, first compound 0.00949 µM) of 0.91%. For the same compound, the viability, T/C (second compound 0.0316 µM, first compound 0.03 µM) was 0.37%, the viability, T/C (second compound 0.0316 µM, first compound 0.0949 µM) was 0.28% and the viability, T/C (second compound 0.0316 µM, first compound 0.3 µM) was 0.14%. For the same compound, the viability, T/C (second compound 0.1 µM, first compound 0.000949 µM) was 94.9%, the viability, T/C (second compound 0.1 µM, first compound 0.003 µM) was 82.8% and the viability, T/C (second compound 0.1 µM, first compound 0.00949 µM) was 2.63%. The viability, T/C (second compound 0.1 µM, first compound 0.03 µM) was 0.49%, the viability, T/C (second compound 0.1 µM, first compound 0.0949 µM) was 0.17% and the viability, T/C (second compound 0.1 µM, first compound 0.3 µM) was 0.16%. The viability, T/C (second compound 0.316 µM, first compound 0.000949 µM) was 41.5%, the viability, T/C (second compound 0.316 µM, first compound 0.003 µM) was 18.5% and the viability, T/C (second compound 0.316 µM, first compound 0.00949 µM) was 0.32%. It also gave a viability, T/C (second compound 0.316 µM, first compound 0.03 µM) of 0.16%, a viability, T/C (second compound 0.316 µM, first compound 0.0949 µM) of 0.15% and a viability, T/C (second compound 0.316 µM, first compound 0.3 µM) of 0.14%. The viability, T/C (second compound 1 µM, first compound 0.000949 µM) was 0.66%, the viability, T/C (second compound 1 µM, first compound 0.003 µM) was 0.93% and the viability, T/C (second compound 1 µM, first compound 0.00949 µM) was 0.16%. For the same compound, the viability, T/C (second compound 1 µM, first compound 0.03 µM) was 0.1%, the viability, T/C (second compound 1 µM, first compound 0.0949 µM) was 0.17% and the viability, T/C (second compound 1 µM, first compound 0.3 µM) was 0.8%. It also gave a viability, T/C (second compound 3.16 µM, first compound 0.000949 µM) of 0.08%, a viability, T/C (second compound 3.16 µM, first compound 0.003 µM) of 2.07% and a viability, T/C (second compound 3.16 µM, first compound 0.00949 µM) of 0.1%. It also gave a viability, T/C (second compound 3.16 µM, first compound 0.03 µM) of 0.08%, a viability, T/C (second compound 3.16 µM, first compound 0.0949 µM) of 1.36% and a viability, T/C (second compound 3.16 µM, first compound 0.3 µM) of 1.67%. The viability, T/C (second compound 10 µM, first compound 0.000949 µM) was 0.06%, the viability, T/C (second compound 10 µM, first compound 0.003 µM) was 1.03% and the viability, T/C (second compound 10 µM, first compound 0.00949 µM) was 0.12%. The viability, T/C (second compound 10 µM, first compound 0.03 µM) was 0.11%, the viability, T/C (second compound 10 µM, first compound 0.0949 µM) was 2.27% and the viability, T/C (second compound 10 µM, first compound 0.3 µM) was 1.33%.

For `CC1COCCN1c1cc(C2(S(C)(=N)=O)CC2)nc(-c2ccnc3[nH]ccc23)n1` (stereo unspecified) + CN1CCN(c2cc(C(=O)Nc3cc4cc(-c5cnn(C)c5)ccc4cn3)ccn2)CC1, the IC50 (second compound 0.0316 µM) was 4570 nM, the IC50 (second compound 0.1 µM) was 3950 nM and the IC50 (second compound 0.316 µM) was < 31.6 nM. The IC50 (second compound 1 µM) was < 31.6 nM, the IC50 (second compound 3.16 µM) was < 31.6 nM and the IC50 (second compound 10 µM) was < 31.6 nM. It also gave a viability, T/C [1] of 115%, a viability, T/C [2] of 116% and a viability, T/C [3] of 103%. For the same compound, the viability, T/C [4] was 97.1%, the viability, T/C [5] was 59.5% and the viability, T/C [6] was 27.5%. For the same compound, the viability, T/C [7] was 109%, the viability, T/C [8] was 95.4% and the viability, T/C [9] was 96.8%. The viability, T/C [10] was 83%, the viability, T/C [11] was 54.3% and the viability, T/C [12] was 26.5%. The viability, T/C [13] was 33.3%, the viability, T/C [14] was 45.9% and the viability, T/C [15] was 39.8%. The viability, T/C [16] was 34.8%, the viability, T/C [17] was 19.1% and the viability, T/C [18] was 9.89%. For the same compound, the viability, T/C [19] was 0.39%, the viability, T/C [20] was 0.82% and the viability, T/C [21] was 0.84%. For the same compound, the viability, T/C [22] was 0.41%, the viability, T/C [23] was 0.31% and the viability, T/C [24] was 0.11%. It also gave a viability, T/C [25] of 1.1%, a viability, T/C [26] of 0.7% and a viability, T/C [27] of 0.19%. It also gave a viability, T/C [28] of 0.15%, a viability, T/C [29] of 0.15% and a viability, T/C [30] of 1.68%. It also gave a viability, T/C [31] of 0.16%, a viability, T/C [32] of 0.16% and a viability, T/C [33] of 0.22%. For the same compound, the viability, T/C [34] was 0.22%, the viability, T/C [35] was 0.22% and the viability, T/C [36] was 0.19%.

In the case of `O=C(c1cc(Cc2n[nH]c(=O)c3ccccc23)ccc1F)N1CCN(C(=O)C2CC2)CC1` + CN1CCN(c2cc(C(=O)Nc3cc4cc(-c5cnn(C)c5)ccc4cn3)ccn2)CC1, the IC50 (second compound 0.0316 µM) is reported as > 10000 nM, the IC50 (second compound 0.1 µM) is reported as > 10000 nM and the IC50 (second compound 0.316 µM) is reported as < 31.6 nM. For the same compound, the IC50 (second compound 1 µM) was < 31.6 nM, the IC50 (second compound 3.16 µM) was < 31.6 nM and the IC50 (second compound 10 µM) was < 31.6 nM. It also gave a viability, T/C [1] of 105%, a viability, T/C [2] of 106% and a viability, T/C [3] of 104%. It also gave a viability, T/C [4] of 100%, a viability, T/C [5] of 86.5% and a viability, T/C [6] of 72.1%. For the same compound, the viability, T/C [7] was 115%, the viability, T/C [8] was 111% and the viability, T/C [9] was 110%. For the same compound, the viability, T/C [10] was 98%, the viability, T/C [11] was 84.4% and the viability, T/C [12] was 68.2%. It also gave a viability, T/C [13] of 37.2%, a viability, T/C [14] of 39.2% and a viability, T/C [15] of 43.6%. The viability, T/C [16] was 46%, the viability, T/C [17] was 42% and the viability, T/C [18] was 32.6%. The viability, T/C [19] was 0.41%, the viability, T/C [20] was 0.25% and the viability, T/C [21] was 0.62%. The viability, T/C [22] was 0.21%, the viability, T/C [23] was 0.92% and the viability, T/C [24] was 1.08%. The viability, T/C [25] was 0.08%, the viability, T/C [26] was 0.44% and the viability, T/C [27] was 0.12%. For the same compound, the viability, T/C [28] was 0.15%, the viability, T/C [29] was 0.79% and the viability, T/C [30] was 0.38%. It also gave a viability, T/C [31] of 0.08%, a viability, T/C [32] of 0.14% and a viability, T/C [33] of 0.72%. For the same compound, the viability, T/C [34] was 0.15%, the viability, T/C [35] was 0.23% and the viability, T/C [36] was 0.5%.
